This experiment addresses T1, AtMRP1 (Arabidopsis thaliana, UniProt Q9C8G9).
T1 construct: S. cerevisiae DTY168 (ycf1 null) vacuolar-enriched membrane vesicles
Nature of the experiment: AtMRP1-dependent uptake by membrane vesicles from pYES3-AtMRP1-transformed DTY168 cells. The format is biochemical.

Values joined by “and” are separate entries in the source; they are usually repeats but may differ in a detail not shown here. Equal entries are not always repeated.

T1 sequence (Q9C8G9 whole entry): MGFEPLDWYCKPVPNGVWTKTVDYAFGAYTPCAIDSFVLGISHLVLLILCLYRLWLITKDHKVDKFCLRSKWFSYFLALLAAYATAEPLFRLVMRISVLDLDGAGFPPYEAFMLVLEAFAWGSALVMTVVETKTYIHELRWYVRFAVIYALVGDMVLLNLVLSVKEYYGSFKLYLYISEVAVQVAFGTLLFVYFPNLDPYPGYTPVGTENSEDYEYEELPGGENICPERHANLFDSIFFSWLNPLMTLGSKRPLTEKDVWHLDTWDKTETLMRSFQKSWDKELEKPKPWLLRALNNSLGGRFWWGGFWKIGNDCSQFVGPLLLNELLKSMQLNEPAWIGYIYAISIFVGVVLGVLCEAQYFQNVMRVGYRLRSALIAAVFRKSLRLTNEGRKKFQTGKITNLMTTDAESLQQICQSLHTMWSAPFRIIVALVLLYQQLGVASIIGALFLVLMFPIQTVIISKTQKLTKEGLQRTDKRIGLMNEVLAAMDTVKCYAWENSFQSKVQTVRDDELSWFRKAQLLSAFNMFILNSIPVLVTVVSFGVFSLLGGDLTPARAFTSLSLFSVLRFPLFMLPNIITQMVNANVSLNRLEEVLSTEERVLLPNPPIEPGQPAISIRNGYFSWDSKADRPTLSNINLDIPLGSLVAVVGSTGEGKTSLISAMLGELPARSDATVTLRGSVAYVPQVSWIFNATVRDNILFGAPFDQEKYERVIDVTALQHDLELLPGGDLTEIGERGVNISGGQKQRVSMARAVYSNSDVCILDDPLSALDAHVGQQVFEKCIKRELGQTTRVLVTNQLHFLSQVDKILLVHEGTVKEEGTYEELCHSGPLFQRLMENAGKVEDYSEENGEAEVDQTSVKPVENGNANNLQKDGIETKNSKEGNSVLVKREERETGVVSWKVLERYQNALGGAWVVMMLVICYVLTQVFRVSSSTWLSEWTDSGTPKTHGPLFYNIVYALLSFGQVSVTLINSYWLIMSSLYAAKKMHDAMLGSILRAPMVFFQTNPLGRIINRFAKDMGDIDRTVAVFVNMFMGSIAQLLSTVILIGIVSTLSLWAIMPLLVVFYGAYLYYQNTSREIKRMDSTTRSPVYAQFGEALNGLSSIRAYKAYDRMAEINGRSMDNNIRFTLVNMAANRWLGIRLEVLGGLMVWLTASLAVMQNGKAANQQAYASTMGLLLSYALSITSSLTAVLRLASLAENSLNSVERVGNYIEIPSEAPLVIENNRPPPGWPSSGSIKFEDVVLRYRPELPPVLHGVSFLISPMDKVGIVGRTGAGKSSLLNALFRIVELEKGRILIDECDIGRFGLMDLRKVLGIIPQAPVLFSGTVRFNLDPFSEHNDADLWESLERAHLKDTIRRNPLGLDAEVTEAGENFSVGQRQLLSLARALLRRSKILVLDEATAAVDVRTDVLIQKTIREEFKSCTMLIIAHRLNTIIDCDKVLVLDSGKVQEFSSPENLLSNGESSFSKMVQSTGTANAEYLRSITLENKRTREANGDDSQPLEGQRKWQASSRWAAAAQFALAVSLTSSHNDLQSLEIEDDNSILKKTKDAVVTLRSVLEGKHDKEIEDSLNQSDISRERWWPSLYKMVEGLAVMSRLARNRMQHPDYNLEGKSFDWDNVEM

As for `N[C@@H](CCC(=O)N[C@@H](CSc1ccc([N+](=O)[O-])cc1[N+](=O)[O-])C(=O)NCC(=O)O)C(=O)O` [DNP-GS, S-(2,4-dinitrophenyl)glutathione], the “increase in DNP-GS uptake following introduction of plasmid borne AtMRP1” value is “ca. 4 nmol/mg/20 minutes”. Besides, the “initial rate of DNP-GS uptake” value (61.3 μM DNP-GS) was found to be 0.4 nmol/mg/min. Further, the “Vmax for AtMRP1-dependent uptake” value (MgATP-dependent, uncoupler-insensitive) is 6.0±1.7 nmol/mg/10 min and 8.2±1.6 nmol/mg/10 min.

The values are drawn from US6166290A, “Glutathione-S-conjugate transport in plants” (The Trustees of the University of Pennsylvania, priority 1997, dated 2000).
